This note sets out measurements from ChEMBL document CHEMBL1146125, “Ultra-potent P1 modified arylsulfonamide HIV protease inhibitors: the discovery of GW0385” (Bioorg Med Chem Lett, 2006).

The nature of series [1]: Half life in dog at 1 mg/kg. The following applies: in vivo. Format: ADME, organism-based, Canis lupus familiaris. More on the design: dose 1 mg/kg.
A short description of series [2]: Half life in dog at 1 mg/kg co-administered with 4 mg/kg ritonavir. The following applies: in vivo. Format: ADME, organism-based, Canis lupus familiaris.
Series [3] concerns MT4. Briefly: Antiviral activity against HIV1 EP13 in MT4 cells. In kind it is functional, cell-based. The following applies: Homo sapiens.
For series [4], the system named is MT4. Briefly: Antiviral activity against multi PI resistant HIV1 EP14 in MT4 cells. Format: functional, cell-based. The following applies: Homo sapiens.
Series [5] can be described thus: Half life in rat at 1 mg/kg. In kind it is ADME, organism-based. More on the design: dose 1 mg/kg. The following applies: in vivo.
The test system of series [6] is MT4. Briefly: Antiviral activity against amprenavir resistant HIV1 468 in MT4 cells. The following applies: Homo sapiens. Format: functional, cell-based.
Series [7] in a line: Oral bioavailability in rat at 1 mg/kg. In kind it is ADME, organism-based. The following applies: in vivo.
Series [8] deals with MT4. Briefly: Antiviral activity against nelfinavir resistant HIV1 14330 in MT4 cells. The following applies: Homo sapiens. In kind it is functional, cell-based.
The nature of series [9]: Clearance in rat at 1 mg/kg, iv. Format: ADME, organism-based. More on the design: dose 1 mg/kg, route intravenous. The following applies: in vivo.
The nature of series [10]: Bioavailability in dog at 1 mg/kg co-administered with 4 mg/kg ritonavir. The following applies: in vivo. In kind it is ADME, organism-based, Canis lupus familiaris.
The test system of series [11] is MT4. Briefly: Antiviral activity against HIV1 I50V in MT4 cells. In kind it is functional, cell-based. The following applies: Homo sapiens.
Series [12] relates to MT4. Briefly: Antiviral activity against multi PI resistant HIV1 31246 in MT4 cells. Format: functional, cell-based. The following applies: Homo sapiens.
In series [13] the test system is MT4. Briefly: Antiviral activity against HIV1 I54V in MT4 cells. In kind it is functional, cell-based. The following applies: Homo sapiens.
A short description of series [14]: Half life in rat at 1 mg/kg co-administered with 4 mg/kg ritonavir. In kind it is ADME, organism-based. The following applies: in vivo.
In series [15] the test system is MT4. Briefly: Antiviral activity against indinavir resistant HIV1 30813 in MT4 cells. In kind it is functional, cell-based. The following applies: Homo sapiens.
Series [16] in a line: Clearance in dog at 1 mg/kg, iv. Set-up: dose 1 mg/kg, route intravenous. The following applies: in vivo. In kind it is ADME, organism-based, Canis lupus familiaris.
Series [17] deals with MT4. Briefly: Antiviral activity against triple multi PI resistant HIV1 in MT4 cells. Format: functional, cell-based. The following applies: Homo sapiens.
Series [18] is described as follows: Oral bioavailability in dog at 1 mg/kg. In kind it is ADME, organism-based, Canis lupus familiaris. The following applies: in vivo.
The nature of series [19]: Bioavailability in rat at 1 mg/kg co-administered with 4 mg/kg ritonavir. In kind it is ADME, organism-based. The following applies: in vivo.

Molecules are shown by their SMILES.

The term half-life denotes how long it takes for the measured level to halve. One may read the IC50 as the midpoint of a concentration-inhibition curve. By bioavailability is commonly meant dose-corrected exposure relative to a reference, in per cent. A word on the clearance: it is the rate of elimination divided by the concentration. Lower therefore signals inefficient removal. On to `Cc1nc(COc2ccc(C[C@H](NC(=O)O[C@H]3CO[C@H]4OCC[C@H]43)[C@H](O)CN(CC(C)C)S(=O)(=O)c3ccc4c(c3)OCO4)cc2)cs1` [BRECANAVIR], for which the half-life in [1] is 52.2 min; in series [2], 72 min; in series [5], 84 min; in series [14], 66 min. The IC50 in the series with MT4 [3] came to 1.1 nM; in the series on MT4 [4] it was 0.77 nM; in the series with MT4 [6], 8.2 nM; in the series on MT4 [8] it was 0.45 nM; with MT4 [11], 1.6 nM; with MT4 [12], 1.7 nM. Further, the concentration for half-maximal inhibition (IC50) came to 0.22 nM in the series with MT4 [13], 0.46 nM with MT4 [15] and 5.4 nM in the series with MT4 [17]. The bioavailability in series [7] is 10%; in series [10], 86%; in series [18], 20%; in series [19], 62%. For the same molecule, the clearance is 10 mL/min/kg in [9] and 19 mL/min/kg in series [16].
